Measurements from patent US20040024005A1, “Methods and compositions for reducing the development of drug tolerance and/or physical dependence” (The Regents of the University of California, priority 2002, published 2004).

Legend:
[1] = target: T1, FLAG-MOR (mu opioid receptor) (Mus musculus, UniProt P42866); assay: MOR endocytosis by antibody feeding and immunocytochemistry in HEK 293 cells; format: cell-based
T1 construct: expressed in transfected cells
Procedure: (§1) Cell culture and immunocytochemistry. Human Embryonic Kidney (HEK) 293 cells (American Type Culture Collection) were grown in DMEM (Gibco BRL) supplemented with 10% Fetal Bovine Serum (Hyclone). Mu opioid receptor and CRE-Luciferase (Promega) constructs were stably transfected using calcium phosphate co-precipitation, with single colonies chosen and propagated in the presence of selection-containing media. For immunocytochemistry, cells were grown on poly-lysine coated coverslips and incubated with 3.5 μg/ml M1 anti-FLAG and/or 3.5 μg/ml HA-11 antibody (Covance) for 30 minutes. Cells were then treated with agonist as specified, fixed in 4% formaldehyde in PBS, permeabilized in 0.1% Triton X-100 in blotto, and stained. Cells stained for only one receptor type were stained with Texas red-conjugated Donkey anti-Mouse antibody (Jackson Immunoresearch). Cells that were stained for both FLAG and HA tagged receptors simultaneously were first incubated with rabbit anti-IgG2b antibodies (Zymed) followed by staining with Texas red Donkey anti Mouse antibody (Jackson Immunoresearch) and FITC-conjugated Goat anti Mouse IgG1, antibody (Boehringer). Images were acquired using a custom-configured inverted microscope (Prairie Systems, Madison, Wis.) with a Zeiss 63× oil objective, or a Zeiss confocal with a 60× oil objective.
We next assessed whether the heterodimerization of MOR and D MOR could affect the trafficking of the receptors using immunocytochemical methods. […] Control cell lines that expressed only one of the receptors, either FLAG-MOR or HA-D MOR, were treated analogously. All cells were then permeabilized and stained with fluorescently conjugated secondary antibodies. In this way, only receptors that were initially on the cell surface were detected.
HEK 293 cells were generated that stably expressed both the FLAG-tagged MOR and an HA-tagged B2AR. The cells were incubated with antibodies to both epitope tags to label cell surface receptors, treated with various agonists or agonists combinations, then stained for both receptors. […] All treatments were for 30 minutes with 5 μM each agonist.

[2] = Radiant heat tail-flick antinociception, intrathecal (IT) catheter; format: in vivo, rat
Source text: Animals. Male Sprague-Dawley rats (250-300 g, Simonsen Laboratories, Inc. Gilroy, Calif.) were housed individually in temperature-controlled rooms with a 12-hr light/dark cycle. Food and water were available ad libitum. All procedures used in this study were in agreement with the NIH Guide for the Care and Use of Laboratory Animals and were approved by the Animal Care and Use Committee at Gallo Center of the University of California, San Francisco.
Preparation and implantation of intrathecal (IT) catheters. […] Two types of catheters were prepared depending on the regimen for test drug delivery. […] For catheter implantation, rats were anesthetized with isoflurane and placed on a stereotaxic device with the head flexed forward. The PE-10 catheter was inserted into the spinal subarachnoid space through an incision in the atlanto-occipital membrane and advanced caudally extending to the lumbar enlargement of the spinal cord. After implantation of IT catheters, rats were returned to their home cages and allowed 7 days to recover from surgery.
Drug treatments. […] The test drug was delivered via either single injection or chronic infusion. […] DAMGO or saline was injected through one arm of the Y-shape catheter at 15 μl volume.
Antinociception test. Rats were tested for antinociception using the radiant heat tail-flick procedure. The light intensity was adjusted to achieve base-line latencies of 1.5 to 2 seconds; a maximum latency of 6 seconds was set as the cut-off time to minimize damage to the tail. […] Antinociception was tested by tail-flick 30 min after the afternoon administration. The behavioral data of antinociception were compared and statistically analyzed by two-way analysis of variance followed by Bonferroni post-test, where P<0.05 was considered significant.
(§2) Rats (4-6 per group) were implanted with an intrathecal catheter through which either an acute injection of agonist could be given or chronic drug could be administered by an osmotic mini pump.
Rats were implanted with a Y-shaped intrathecal catheter. […] Either a sub-analgesic, sub-endocytic dose of DAMGO (0.01 nmoles in 15 μl) or an equal volume of saline was administered twice daily through the other arm of the catheter. […] Analgesia was measured by tail flick latency test once per day 30 minutes following the second injection.

[3] = Tail-flick antinociception and tolerance, intracerebroventricular (i.c.v.) cannula; format: in vivo, rat
Source text: Intracerebroventricular (i.c.v.) cannula implantation. Rats were anesthetized with halothane and placed in a stereotaxic head holder. The scalp was shaved and scrubbed with alcohol. A midline sagittal incision was made, and the skull was exposed. The bone suture junctions Bregma and midline (lambda) were identified, then the location for cannula placement was marked 1 mm posterior to Bregma and 1.5 mm lateral (left) of the midline. A hole was drilled through the skull at the marked location to receive the cannula. Then, three additional holes were drilled around the first hole: anterior, lateral and posterior to the first hole, respectively, and about 3-4 mm apart from the first hole. These three holes were drilled partway through the skull to accommodate three small screws used to secure the cannula. An L-shaped cannula was inserted through the first hole in the skull to the stereotaxically correct depth 3.6 mm below the surface of the skull. The skull surface was completely dried, and the cannula and the implantation site covered with dental cement. Once the surgical procedures were done, the rat was removed from the stereotaxic device and returned to its cage and allowed 5 to 7 days to recover from surgery.
Implantation of osmotic mini-pump. After 5 to 7 days of recovery, a subcutaneous pocket in the midscapular area of the back of each rat, next to the implanted cannula (caudally), was created under light anesthesia with halothane to house the osmotic mini-pump. The subcutaneous pocket was created by first making a small incision, inserting a hemostat into the incision, and then opening and closing the hemostat to make a short subcutaneous tunnel. […] The wound was closed with sutures and the rat was returned to its cage.
Rats were tested for analgesia using the tail-flick latency test twice during the study period. The tests were conducted 30 min after the morning dose on days 1 and 5. Maximum Possible Effect (MPE) was calculated using the following equation: (Post-drug latency—baseline latency)/(cut-off latency—baseline latency)×100%.

[4] = Naloxone-precipitated withdrawal after i.c.v. treatment (jumping, shaking, chewing, weight loss); settings: naloxone 3 mg/kg i.p.; for withdrawal behaviours after naloxone: 20-min period; for withdrawal symptoms after naloxone (jumping, shaking, chewing, weight loss): i.c.v. twice daily for 5 days, morphine 50 nmoles, DAMGO 1.0 nmole
Procedure: (§3) On day 7, rats were injected intraperitoneally with 3 mg/kg naloxone and placed, individually, in Plexiglass cylinders. The rats were monitored for jumping, shaking, and chewing, and the number of occurrences of each type of behavior over a 20-min period was recorded immediately following the naloxone injection. In addition, the rats were weighed before naloxone injection and after the 20 mins of monitoring indicated above.
as §3, with “5, 30 mins following the second drug administration,” for “7,”, “following” for “after”, “20-min observation period” for “20 mins of monitoring”

[5] = target: T2, HA-B2AR (beta-2 adrenergic receptor) (Homo sapiens, UniProt P07550); assay: B2AR endocytosis in HEK 293 cells expressing FLAG-MOR and HA-B2AR; format: cell-based; settings: 5 μM each agonist, 30 minutes
T2 construct: expressed in transfected cells
Procedure: as §1, with “objective. […]” for “objective.”

[6] = target: T3, MORs in the lamina II neurons of the spinal cord (Rattus norvegicus, UniProt P33535); assay: Immunohistochemical staining of MORs in lamina II spinal cord neurons after IT drug; format: in vivo
T3 construct: from tissue; host or cells: spinal cord (lamina II, dorsal horn) of male Sprague-Dawley rats dosed intrathecally
Procedure: Immunohistochemistry. The rats were anesthetized with intramuscular ketamine hydrochloride (80 mg/kg) and xylazine hydrochloride (12 mg/kg) and perfused with 4% paraformaldehyde in 0.1 M phosphate buffer immediately following the tail-flick test at day 7 following pump implantation. The segment of spinal cord proximal to the tip of the catheter was dissected out, post-fixed overnight in the same fixative and then transferred to a 30% sucrose buffer solution. […] The sections were then washed and mounted on slides. MOR distribution was examined with a Zeiss confocal microscope using a 60× oil immersion objective. For quantification, slides from at least two different rats for each condition were stained by one researcher and encoded and vesicles were counted blind by a second individual from the middle section of at least 8 cells per condition. Following compilation of vesicle counts, the code was broken.
as §2
A very low dose of DAMGO was chosen to avoid confusion due to DAMGO-induced endocytosis.
To examine this possibility, we examined the distribution of the MORs in the spinal cord of the rats from the behavioral experiment.

[7] = target: T4, MOR-G protein coupling (Rattus norvegicus, UniProt P33535); assay: [35S]-GTPγS binding autoradiography of brain sections (MOR-G protein coupling) after chronic treatment; format: in vivo; settings: chronic DAMGO treatment as printed; brainstem P<0.001, thalamus P<0.05
T4 construct: from tissue; host or cells: brain sections of male Sprague-Dawley rats treated i.c.v
Procedure: The binding assay was carried out as follows:
Slides containing brain sections were pre-incubated in buffer (50 mM Tris, 3 mM MgCl2, 0.2 mM EGTA, 100 mM NaCl, pH 7.4) for 10 min at room temperature.
The slides were then pre-incubated in the same buffer containing 2 mM GDP for 10 min at room temperature.
The slides were incubated in the same buffer as in step 2, additionally containing 50 pM [^35S]GTPγS for 90 min at room temperature.
The slides were then rinsed twice for 2-5 min in ice-cold buffer (the same buffer as in step 1) and dipped in cold distilled water.
The slides were thoroughly dried overnight, placed in X-ray cassettes, and exposed to BioMax MS™ film with an intensifying screen for 72 hr.
After exposure, the films were developed and scanned. The regional neuroanatomy of the rat was determined with the atlas of Paxinos and Watson, and brain areas in autoradiograms were quantitated using NIH Image software. Percent stimulation was calculated from optical densities (OD) according to the following equation:
Percent stimulation=(stimulated OD−basal OD)/basal OD×100%.

[8] = target: T5, mu-opioid receptor (Rattus norvegicus, UniProt P33535); assay: MOR distribution in brain by immunohistochemistry after acute and chronic i.c.v. treatment; format: in vivo; settings: i.c.v. acute or chronic (twice a day, 5 days); morphine 50 nmoles, DAMGO 1 nmole
T5 construct: from tissue; host or cells: brain sections of male Sprague-Dawley rats treated i.c.v
Procedure: For the acute treatment, animals were sacrificed 30 mins following the first injection. For the chronic treatment, drugs were given twice a day: morning and afternoon, in 5 μl volume for 5 days, and the animals were sacrificed 30 mins following the final injection. Rats were deeply anesthetized with halothane and perfused with 4% paraformaldehyde in 0.1 M phosphate buffer. The brains were dissected out and post-fixed overnight in the same fixative and then transferred to a 30% sucrose buffer. Coronal sections (30 um thick) were cut on cryostat at −18° C., preincubated in PBT solution (0.1 M phosphate buffer, 2% BSA, and 0.2% Triton X-100) for 30 min, blocked in 5% normal goat serum in PBT solution for another 30 min, and then incubated with a rabbit anti-mu opioid receptor antibody at 1:5000 and mouse and NeuN antibody (which recognizes the neuronal-specific protein NeuN) at 1:5000 overnight at 4° C. […] The sections were then washed and mounted onto slides. The mu-opioid receptors and NeuN were visualized using a Zeiss confocal microscope with a 60× oil immersion objective.

[9] = target: wild type MOR (Homo sapiens, UniProt P35372); settings: cited from earlier work
[10] = system: cAMP pathway; assay: CRE-luciferase reporter assay of cAMP superactivation in MOR-expressing HEK293 cells; settings: chronic 14 hours
Procedure: CRE-luciferase reporter expression assays. Cells were grown to confluency in 24 well plates. […] For chronic treatment experiments cells were given drug for 14 hours, rinsed 3 times in drug-free media to initiate a withdrawal phase, then given 2 μM forskolin for the 4 hour withdrawal phase, and luciferase activity measured. […] For all treatment conditions, cells were rinsed once in PBS immediately prior to luciferase measurement. 100 μl Cell Culture Lysis Reagent (Promega) was added to each well, a 20 μl cell lysate aliquot was transferred to an opaque 96 well plate, 100 μl substrate added per well using a Lucy 2 luminometer (Anthos), and light measurements collected. Data were exported to Microsoft Excel for compilation, and GraphPad Prism 3.0 for graphical display, non-linear regression curve fitting, and subsequent statistical analyses.
P<0.01, two-way ANOVA, Tukey's post test.

[11] = HEK 293 cells expressing FLAG-MOR and HA-B2AR, 5 μM each agonist, 30 minutes
[12] = acute IT injection, 30 min after, DAMGO 0.3 nmoles, morphine 30 nmoles, p<0.001
[13] = chronic i.c.v. infusion at 25 or 75 nmoles/hr for 7 days

T3 sequence (P33535 whole entry): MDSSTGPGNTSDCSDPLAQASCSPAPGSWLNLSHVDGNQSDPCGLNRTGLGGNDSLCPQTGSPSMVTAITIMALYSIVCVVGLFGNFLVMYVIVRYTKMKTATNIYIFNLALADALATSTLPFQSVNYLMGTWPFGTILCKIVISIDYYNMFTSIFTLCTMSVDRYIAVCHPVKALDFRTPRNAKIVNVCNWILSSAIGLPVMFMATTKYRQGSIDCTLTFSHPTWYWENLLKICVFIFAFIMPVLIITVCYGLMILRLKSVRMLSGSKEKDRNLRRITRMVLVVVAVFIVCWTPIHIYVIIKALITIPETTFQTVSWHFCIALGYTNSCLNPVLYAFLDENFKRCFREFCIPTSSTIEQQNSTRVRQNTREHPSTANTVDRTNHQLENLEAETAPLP
T1 sequence (P42866 whole entry): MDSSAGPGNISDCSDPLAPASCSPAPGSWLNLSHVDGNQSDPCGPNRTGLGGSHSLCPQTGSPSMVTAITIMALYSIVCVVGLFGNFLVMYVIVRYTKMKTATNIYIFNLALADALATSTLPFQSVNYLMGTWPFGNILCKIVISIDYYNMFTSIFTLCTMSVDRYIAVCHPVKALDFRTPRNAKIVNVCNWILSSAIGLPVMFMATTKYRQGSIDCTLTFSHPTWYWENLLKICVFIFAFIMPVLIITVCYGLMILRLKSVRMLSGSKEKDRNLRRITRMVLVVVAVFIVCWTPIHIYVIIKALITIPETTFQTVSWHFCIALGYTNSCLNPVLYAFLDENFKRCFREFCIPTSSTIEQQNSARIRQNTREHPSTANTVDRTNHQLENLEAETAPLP
T5 sequence (P33535 whole entry): as the sequence (P33535 whole entry) above
T4 sequence (P33535 whole entry): as above
Sequence of wild type MOR (P35372 whole entry): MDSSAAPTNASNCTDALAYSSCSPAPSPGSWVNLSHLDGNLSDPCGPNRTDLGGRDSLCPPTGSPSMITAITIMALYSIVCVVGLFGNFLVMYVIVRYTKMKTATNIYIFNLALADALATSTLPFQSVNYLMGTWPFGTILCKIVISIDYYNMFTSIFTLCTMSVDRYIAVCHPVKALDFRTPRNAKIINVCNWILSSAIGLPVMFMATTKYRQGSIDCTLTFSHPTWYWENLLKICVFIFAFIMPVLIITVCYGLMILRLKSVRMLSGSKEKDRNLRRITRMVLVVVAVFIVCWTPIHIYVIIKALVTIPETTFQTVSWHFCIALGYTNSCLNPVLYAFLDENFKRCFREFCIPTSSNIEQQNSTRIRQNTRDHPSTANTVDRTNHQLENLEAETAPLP
T2 sequence (P07550 whole entry, species assumed): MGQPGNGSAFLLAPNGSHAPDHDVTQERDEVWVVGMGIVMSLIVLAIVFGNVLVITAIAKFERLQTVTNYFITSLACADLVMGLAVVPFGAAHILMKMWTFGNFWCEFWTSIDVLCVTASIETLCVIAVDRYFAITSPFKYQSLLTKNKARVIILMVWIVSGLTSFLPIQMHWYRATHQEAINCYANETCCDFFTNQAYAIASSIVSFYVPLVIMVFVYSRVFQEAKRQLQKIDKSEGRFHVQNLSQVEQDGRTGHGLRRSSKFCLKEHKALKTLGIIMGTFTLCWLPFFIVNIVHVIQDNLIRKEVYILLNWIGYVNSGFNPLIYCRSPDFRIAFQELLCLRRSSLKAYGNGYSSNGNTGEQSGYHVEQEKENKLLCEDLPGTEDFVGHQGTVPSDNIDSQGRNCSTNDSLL

Structure (SMILES): CC(C)NCC(O)c1ccc(O)c(O)c1 (stereo not drawn) [isoproterenol]
- MOR endocytosis [1, 11]: not MOR

Structure (SMILES): CN1CC[C@]23c4c5ccc(O)c4O[C@H]2[C@@H](O)C=C[C@H]3[C@H]1C5 [morphine, (5α,6α)-7,8-didehydro-4,5-epoxy-17-methylmorphinan-3,6-diol]
- time to development of tolerance ([2]; Y-shaped IT catheter, chronic morphine mini pump plus twice daily saline injections): ≤ 4 days
- antinociception early in the experiment / day one ([2]; Y-shaped IT catheter, chronic morphine mini pump plus twice daily saline or DAMGO 0.01 nmoles): pronounced antinociception early in the experiment
- analgesia (tail flick latency) [2, 12]: produced significant analgesia
- loss of antinociception (tolerance) ([2]; chronic IT infusion at 2, 6, or 18 nmoles/hr, 7 days): eventually lost completely over 7 days
- antinociceptive effect (tail flick latency) ([2]; chronic IT infusion at 2, 6, or 18 nmoles/hr, early days): significant antinociceptive effect for the first few days
- duration of significant antinociceptive effect [3, 13]: 3 to 4 days
- tolerance [3, 13]: causes tolerance in a dose-dependent manner
- reduction in antinociceptive effect (percent MPE) after 5-day treatment ([3]; i.c.v. 50 nmoles twice a day for 5 days, day 5 vs day 1): 30-40%
- withdrawal behaviours after naloxone ([4]; i.c.v. 25 nmoles/hr for 7 days): increases in shaking and chewing
- withdrawal behaviours after naloxone ([4]; i.c.v. 75 nmoles/hr for 7 days): increases in jumping, shaking, and chewing
- weight loss after naloxone ([4]; i.c.v. 25 or 75 nmoles/hr for 7 days): dose-dependent weight loss
- withdrawal symptoms after naloxone (jumping, shaking, chewing, weight loss) [4]: produced jumping, shaking, and chewing and weight loss

Structure (SMILES): C[C@@H](NC(=O)[C@@H](N)Cc1ccc(O)cc1)C(=O)NCC(=O)N(C)[C@@H](Cc1ccccc1)C(=O)NCCO [DAMGO]
- MOR endocytosis [1, 11]: promoted endocytosis of the MOR
- MOR endocytosis ([1]; HEK 293 cells expressing only MOR, 5 μM, 30 minutes (saturating dose)): robust endocytosis of receptor
- MOR endocytosis ([1]; HEK 293 cells expressing only MOR, non-saturating DAMGO 100 nM alone): significantly less receptor endocytosis
- B2AR endocytosis [5]: not B2AR
- analgesia (tail flick latency) ([2]; 0.01 nmoles IT twice daily, saline from mini pump, 7 days): produced no analgesia
- analgesia (tail flick latency) ([2]; acute IT injection, 30 min after, 0.01 nmoles, p>0.05): no analgesic effect
- analgesia (tail flick latency) [2, 12]: produced significant analgesia
- MOR endocytosis in lamina II neurons ([6]; acute IT, 0.01 nmoles alone): nor detectable MOR endocytosis
- MOR distribution / endocytosis in lamina II neurons ([6]; acute IT, DAMGO 0.3 nmoles, equi-analgesic morphine 30 nmoles): pronounced receptor endocytosis
- distribution of MORs in spinal cord neurons ([6]; day 7 of chronic IT treatment, morphine mini pump and/or DAMGO 0.01 nmoles twice daily): indistinguishable from animals given only saline
- reduction in antinociception (percent MPE) after 5-day treatment ([3]; i.c.v. 1 nmole twice a day for 5 days, day 5 vs day 1): much smaller reduction in antinociception
- withdrawal symptoms after naloxone (jumping, shaking, chewing, weight loss) [4]: no jumping and less shaking, chewing, and weight loss
- MOR-G protein coupling in the brainstem and thalamus [7]: reduction MOR-G protein coupling
- promotes substantial MOR endocytosis in brain (striatum, globus pallidus, ventral tegumental area) [8]: does
- MOR endocytosis [9]: promotes robust endocytosis of the MOR
- superactivation of the cAMP pathway relative to untreated cells ([10]; 10 nM alone): little superactivation
- superactivation of the cAMP pathway relative to untreated cells ([10]; 1 μM, 100 nM, 10 nM or 1 nM): superactivation in a dose dependent manner
